Assays:
Assay type in all cases: cell-based
[1] = test system: CXCL10 and CCL5 expression; assay: qRT-PCR of chemokine expression after DNA damaging agents, paclitaxel or nocodazole; conditions: HeLa, HCC1937 EV and MDA-MB-436 EV cells; IC-50 doses; compared to DMSO control; FIG. 14
Experimental: Reverse transcription was performed using the First Strand cDNA synthesis kit (Roche). 500 ng of RNA was reverse transcribed according to manufacturer's instructions. Exon-spanning qPCR primers were designed using Roche Universal Probe Library Assay Design Centre and were used at a concentration of 0.5 μM. The following primer sequences were used:
To preform absolute quantification from qPCR, we used a standard curve method. The efficiency of each primer set was derived from the standard curve using the following equation: E=10^(−1/slope)
The product of Reverse Transcription was diluted 1:10 in Nuclease Free Water (NFW). Each 10 μl PCR reaction, consisted of 0.5 μl of 10 μM Forward primer, 0.5 μl of 10 μM Reverse primer, 5 μl of 2× LightCycler® 480 SYBR Green I Master mix (Roche), 1.5 μl NFW and 2.5 μl diluted Reverse Transcription product. These 10 μl reactions were pipetted into wells of a LightCycler® 480 multiwell 96 plate (Roche), the plate was then sealed using clear adhesive film (Roche). The plate was placed into the LightCycler® 480 (Roche) and run with the following protocol. (95° C. for 10 mins, 45 cycles of; 95° C. for 15 secs, 55° C. for 30 secs and 72° C. for 30 secs, finishing with a melt curve for confirmation of primer specificity. All qPCR data was analysed using the LightCycler® 480 software provided by Roche. For analysis, the Cp value from a technical duplicate was calculated and the relative amount of a gene was calculated Cp value to an in-run standard curve. Each mean value was then normalised to the mean concentration of the housekeeping gene PUM1 within the corresponding sample, by dividing the concentration of the target gene by the concentration of the house keeping gene. Relative expression refers to the gene expression levels that have been normalised to the housekeeping gene and made relative to the associated control samples. From these normalized values, the fold changes for each gene were calculated and the average of three individual fold changes were derived from three independent experimental triplicates. The unpaired, two-tailed students T-test available on GraphPad Prism 5.0 software was used to detect statistical significance.
For analysis of effects of ATM, ATR and DNAPK on cytokine expression, cells were seeded in six well plates at ˜60% confluency. Following incubation overnight, small molecule inhibitors of ATM (Ku60019, Selleck Chem) at a dose of 1 μm, ATR (ETP46464, Selleck Chem) at a dose of 5 μm and DNAPK (Nu7441, Selleck Chem) at a dose of 5 μm were added. At 24 hours, RNA and protein samples were obtained for analysis. For analysis of the effects of DNA damaging agents and paclitaxel on cytokine expression, cells were seeded in six well plates at ˜60% confluency. […]

cGAS bound to Histone H3 = assay: Co-immunoprecipitation of cGAS with Histone H3 in cytosolic fraction; conditions: HeLa cells, not observed in DMSO treated control, FIG. 18B
Experimental: Cells were fractionated using Buffer A (10 mM Hepes pH7.4; […] MgCl2, 10 mM NaCl, 0.1% NP-40, Protease and Phosphatase inhibitors) and Buffer C (10 mM Hepes pH7.4; […], 420 mM NaCl, 0.1% NP-40, Protease and Phosphatase inhibitors). Cells were cultured at ˜70% confluency. Cells were then removed in PBS using a cell scraper and transferred to an Eppendorf. Following centrifugation at 1000 rpm at 4° C. for 5 minutes, cell pellets were resuspended in 350 μl Buffer A. Cells were lysed on ice for twenty minutes, following which samples were centrifuged at 12000 rpm for 2 minutes. Supernatants were removed, and spun a further two times at 12000 rpm for 2 minutes. The supernatant (cytoplasmic fraction) was carefully removed and stored at −80° C. until quantification using the BCA Assay (Pierce, Rockford, Ill., USA) according to manufacturer's instructions using a plate reader. The remaining pellet was washed ×1 in Buffer A, then centrifuged at 12000 rpm for 2 minutes. […] Samples were then centrifuged at 12000 rpm for two minutes to remove debris, and supernatant (nuclear fraction) stored at −80° C. until quantification as described above.
Cytoplasmic fractions were prepared as described above. […] Results were then visualized and recorded using Luminata Crescendo Western HRP substrate (Millipore, UK) and an alpha imager.

[2] = test system: cytosolic DNA in HeLa cells; assay: PicoGreen fluorescent staining of double-stranded DNA, confocal microscopy; conditions: IC50 doses, FIG. 19C
Excerpt: We probed cytosolic fractions of DDRD positive cells MDA-436-EV and +BRCA1, and HCC1937-EV and +BRCA1 cells for the presence of Histone H3, and found Histone H3 protein expression was increased in the repair deficient lines (EV) (FIG. 19A, top panel of blots). […] PicoGreen fluorescent staining was used to detect double-stranded DNA (ds-DNA). […] This increase in cytosolic DNA was however not observed in response to treatment with Paclitaxel (HeLa+Paclitaxel IC50) (FIG. 19C).

Row | SMILES | CXCL10 and CCL5 relative expression [1] | binding of cGAS to Histone H3 (co-IP) (cGAS bound to Histone H3) | cytosolic DNA (PicoGreen, confocal microscopy) [2]
1 | NC(=O)NO [hydroxyurea, Hydroxyurea] | upregulation of CXCL10 and CCL5 expression was stimulated in all cell lines | cGAS was again bound to Histone H3 | increased cytosolic DNA
2 | N.N.[Cl][Pt][Cl] [cisplatin] | upregulation of CXCL10 and CCL5 expression was stimulated in all cell lines | cGAS was again bound to Histone H3 | increased cytosolic DNA

From patent US11254986B2, “Gene signature for immune therapies in cancer” (ALMAC DIAGNOSTICS LIMITED, priority 2015, dated 2022)
